In publication PMC10527014 (Antiviral research, 2023):
Values after ≈ are worked out from the molar mass of the structure shown. “Also recorded” adds a separate entry of the source.

Assays:
Coxsackie B3 HA 201933 [1] = details: read-out: 50% Effective concentration EC50; Coxsackie B3 HA 201933, Vero 76, CPE
EV-D68 US/MO/14-18949 = details: read-out: 50% Effective concentration EC50; EV-D68 US/MO/14-18949, RD; n=3, 4 concentrations (log10 dilution series)
Polio virus 1 Mahoney [2] = type: cell-based; details: read-out: 90% Effective concentration EC90, Vero 76, virus yield reduction
[3] = tested on: EVD68, strain IL/14-18952 (IL52); assay: Preliminary EVD68 inhibition at single concentration, VP1 qPCR in RD cells; type: cell-based, EV-D68; details: 5 μM, preliminary work, Fig. S2
Coxsackie B3 HA 201933 [4] = assay: Virus yield reduction assay, Coxsackie B3 HA 201933; type: cell-based; details: read-out: 90% Effective concentration EC90; Coxsackie B3 HA 201933, Vero 76, virus yield reduction
[5] = Maximum tolerated dose study in AG129 mice; type: in vivo
[6] = tested on: Influenza H1N1 California/07/2009; assay: Virus yield reduction assay, Influenza H1N1 California/07/2009; type: cell-based; details: read-out: 90% Effective concentration EC90, Influenza H1N1 California/07/2009, MDCK
[7] = tested on: Influenza H1N1 California/07/2009; assay: CPE reduction assay, Influenza H1N1 California/07/2009; type: cell-based; details: read-out: 50% Effective concentration EC50, Influenza H1N1 California/07/2009, MDCK
[8] = tested on: Human Echovirus-11 Gregory; assay: Virus yield reduction assay, Human Echovirus-11 Gregory; type: cell-based; details: read-out: 90% Effective concentration EC90, RD, lowest concentration tested 0.032 μM
Solubility = type: physicochemical
Vero = assay: Cytotoxicity; type: cell-based; details: read-out: 50% Cytotoxic concentration CC50, line of Coxsackie B5
[9] = Human plasma protein binding; type: in vitro ADME
Polio virus 1 Mahoney [10] = type: cell-based; details: read-out: 50% Effective concentration EC50, Vero 76, CPE
CYP1A2 = CYP1A2 (Homo sapiens, UniProt P05177); assay: CYP inhibition, CYP1A2; type: in vitro ADME; details: read-out: CYP inhibition
[11] = tested on: EV-D68 MP30 PP (mouse-adapted US/MO/14-18949); assay: EV-D68 respiratory infection model in four-week-old AG129 mice; type: in vivo
EV-D68 US/KY/14-18953 = assay: Virus yield reduction assay, EV-D68 US/KY/14-18953; type: cell-based; details: read-out: 90% Effective concentration EC90, EV-D68 US/KY/14-18953, RD
[12] = Mouse plasma protein binding; type: in vitro ADME
mouse-adapted CVB5 = assay: Mouse model of CVB5-induced pancreatitis; type: in vivo, BALB/c mice
[13] = Mouse liver microsomes stability; type: in vitro ADME

Sequence of CYP1A2 (P05177 whole entry): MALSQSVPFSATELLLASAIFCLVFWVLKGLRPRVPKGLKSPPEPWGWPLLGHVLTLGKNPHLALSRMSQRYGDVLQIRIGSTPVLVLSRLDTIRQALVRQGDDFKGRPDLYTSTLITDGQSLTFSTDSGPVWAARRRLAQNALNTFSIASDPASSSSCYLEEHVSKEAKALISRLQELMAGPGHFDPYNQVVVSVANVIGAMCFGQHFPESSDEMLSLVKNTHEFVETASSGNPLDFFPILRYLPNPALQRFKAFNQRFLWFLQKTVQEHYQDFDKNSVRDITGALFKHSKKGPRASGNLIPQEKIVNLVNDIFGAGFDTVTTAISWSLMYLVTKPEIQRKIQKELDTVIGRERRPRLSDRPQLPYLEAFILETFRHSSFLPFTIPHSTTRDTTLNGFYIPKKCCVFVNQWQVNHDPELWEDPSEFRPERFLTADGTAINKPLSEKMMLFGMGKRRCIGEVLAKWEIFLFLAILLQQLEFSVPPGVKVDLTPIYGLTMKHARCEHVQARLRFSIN

Cc1cc(-c2noc(C(F)(F)F)n2)ccc1OCCCc1cc(C(=O)N(C)C)no1 [compound 11526092, 3-(3-methyl-4-(3-(3-N,N-dimethylcarbamoyl-isoxazol-5-yl)propoxy)phenyl)-5-trifluoromethyl-1,2,4-oxadiazole]
EC50 (Coxsackie B3 HA 201933 [1]): 1010 nM | EC50 (EV-D68 US/MO/14-18949): < 100 nM | EC90 (Polio virus 1 Mahoney [2]): 520 nM | Antiviral effect in RD cells infected with EV-D68 [3]: greatest antiviral effect | EC90 (Coxsackie B3 HA 201933 [4]): 7780 nM | Maximum tolerated dose ([5]; given IP): > 10 mg/kg | Maximum tolerated dose ([5]; given PO): > 100 mg/kg | EC90 [6]: 9400 nM | EC50 [7]: 25900 nM | EC90 [8]: < 32 nM | Solubility (in words) (Solubility): low solubility | Solubility (Solubility; Buffer pH 7.4): 0.11 µM (≈ 0.0467 µg/mL) | Solubility (Solubility; Fasted State Simulated Gastric Fluid (FaSSGF)): 0.55 µM (≈ 0.233 µg/mL) | Solubility (Solubility; Fasted State Simulated Intestinal Fluid (FaSSIF)): 12.05 µM (≈ 5.11 µg/mL) | CC50 (Vero): 59100 nM | Human plasma protein binding, stability [9]: 93.9% | Human plasma protein binding, bound ([9]; human): 99.7% | EC50 (Polio virus 1 Mahoney [10]): 570 nM | IC50 (CYP1A2): > 50000 nM | Lung concentration of IFN-γ ([11]; 10 mg/kg, day 1): reductions | Lung concentration of IL-10 ([11]; 10 mg/kg, day 5): increase | Lung virus titer ([11]; 30 mg dose, day 5 p.i., P≤0.05 vs placebo): significant reduction | Lung concentration of MIP-1α ([11]; 30 mg/kg, day 5): increase | Lung concentration of MCP-1 ([11]; 100 mg/kg, day 1): reductions | Lung concentration of IL-1α ([11]; 100 mg/kg, day 3): increase | Lung concentration of IL-1β ([11]; 100 mg/kg, day 3): increase | Lung concentration of IL-4 ([11]; 100 mg/kg, day 3): increase | Lung concentration of IL-6 ([11]; 100 mg/kg, day 3): increase | Protection from weight loss (percentage of initial body weight) ([11]; 100 mg/kg/d PO, P<0.05, Fig. S16): significant protection from weight loss | Decrease of viremia ([11]; abstract): 3 log | Lung concentration of RANTES ([11]; all doses, day 1, P≤0.01 - P≤0.0001): significantly reduced | Lung concentration of GM-CSF ([11]; all doses, day 1, P≤0.01 - P≤0.001): significantly reduced | Lung concentration of IL-3 ([11]; all doses, day 1, P≤0.05): significantly reduced | Lung concentration of IL-5 ([11]; all doses, day 1, P≤0.05): significantly reduced | Virus titers in the blood (viremia) ([11]; all doses, days 1 and 3 p.i., P≤0.0001): reduce viremia | Lung virus titers ([11]; day 3 p.i., this study): did not demonstrate any antiviral activity | Reduction in lung titer ([11]; day 5, abstract): 1 log | EC90 (EV-D68 US/KY/14-18953): 78 nM | Mouse plasma protein binding, stability [12]: 88.1% | Mouse plasma protein binding, bound ([12]; mouse): 99.8% | Relative fold gene expression in the pancreas (qPCR) (mouse-adapted CVB5; 100 mg/kg per day, Fig. 5B): statistically significant (P≤0.05) decrease | Histology of pancreatic tissue (mouse-adapted CVB5; CVB5-infected mice, Fig. S20): no signs of tissue damage | Mouse liver microsomes stability (in words) [13]: poor mouse microsomal stability; also recorded: unstable | Mouse liver microsomes CLint ([13]; mouse): 70.6 μL/min/mg protein | Mouse liver microsomes t1/2 ([13]; mouse): 19.6 min
